Measured values reported in patent US20180368410A1, “MICROBIOCIDAL OXADIAZOLE DERIVATIVES” (SYNGENTA PARTICIPATIONS AG, priority 2015, published 2018).

Key:
Uromyces viciae-Fabael = assay: Uromyces viciae-fabae / field bean / leaf disc preventative (faba-bean rust); format: in vivo, Uromyces viciae-fabae on field bean; details: foliar, 288 h, 100 ppm in the applied formulation, inoculated two hours after application, assessed 12 days after application, vs untreated control leaf discs, read-out: disease control
Protocol: (§1) Leaf disks or leaf segments of various plant species are cut from plants grown in a greenhouse. The cut leaf disks or segments are placed in multiwell plates (24-well format) onto water agar. The leaf disks are sprayed with a test solution before (preventative) or after (curative) inoculation. Compounds to be tested are prepared as DMSO solutions (max. 10 mg/ml) which are diluted to the appropriate concentration with 0.025% Tween20 just before spraying. The inoculated leaf disks or segments are incubated under defined conditions (temperature, relative humidity, light, etc.) according to the respective test system. A single evaluation of disease level is carried out 3 to 14 days after inoculation, depending on the pathosystem. Percent disease control relative to the untreated check leaf disks or segments is then calculated.
Field bean leaf discs are placed on water agar in multiwell plates (96-well format) and 10 μl of the formulated test compound diluted in acetone and a spreader pipetted onto the leaf disc. Two hours after application leaf discs are inoculated by spraying a spore suspension on the lower leaf surface. The leaf discs are incubated in a climate cabinet at 22° C. with 18 hour day and 70% relative humidity. The activity of a compound is assessed as percent disease control compared to untreated when an appropriate level of disease damage appears in untreated check leaf disks (12 days after application).
The following compounds at 100 ppm in the applied formulation give at least 80% disease control in this test when compared to untreated control leaf discs under the same conditions, which show extensive disease development.

Phakopsora pachyrhizi = Phakopsora pachyrhizi / soybean / leaf disc preventative (Asian soybean rust); format: in vivo, Phakopsora pachyrhizi on soybean; details: foliar, 200 ppm in the applied formulation, inoculated one day after application, assessed 12 to 14 days after application, vs untreated control leaf disks, read-out: disease control
Protocol: as §1
Soybean leaf disks are placed on water agar in multiwell plates (24-well format) and sprayed with the formulated test compound diluted in water. One day after application leaf discs are inoculated by spraying a spore suspension on the lower leaf surface. After an incubation period in a climate cabinet of 24-36 hours in darkness at 20° C. and 75% rh leaf disc are kept at 20° C. with 12 h light/day and 75% rh. The activity of a compound is assessed as percent disease control compared to untreated when an appropriate level of disease damage appears in untreated check leaf disks (12 to 14 days after application).
The following compounds at 200 ppm in the applied formulation give at least 80% disease control in this test when compared to untreated control leaf disks under the same conditions, which show extensive disease development.

[1] = test system: Puccinia recondita f. Sp. Tritici; assay: Puccinia recondita f. sp. tritici / wheat / leaf disc preventative (brown rust); format: in vivo, Puccinia recondita f. sp. tritici on wheat cv. Kanzler; details: foliar, 200 ppm in the applied formulation, inoculated 1 day after application, assessed 7 to 9 days after application, vs untreated control leaf disks, read-out: disease control
In short: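 Wheat cv. Kanzler leaf segments on agar were sprayed with compound (DMSO stock diluted with 0.025% Tween20) 1 day before inoculation with spores. Segments were held at 19 °C, 75% rh, 12 h light/dark. Percent disease control versus untreated was scored 7–9 days after application.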

[2] = test system: Glomerella Lacenarium (Colletotrichum lacenarium); assay: Glomerella lagenarium (Colletotrichum lagenarium) liquid culture / cucumber / preventative (anthracnose); format: cell-based; details: 20 ppm in the applied formulation, liquid culture in PDB, 24° C., inhibition of growth measured photometrically 3 to 4 days after application, vs untreated control, read-out: disease control
In short: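 Photometric read-out of fungal growth 3 to 4 days after application, expressed as percent control relative to untreated wells. Plates held at 24 °C. Compound placed in DMSO before adding PDB broth seeded with conidia from cryogenic storage.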

[3] = test system: Puccinia recondita f. Sp. Triticil; assay: Puccinia recondita f. sp. tritici / wheat / leaf disc curative (brown rust); format: in vivo, Puccinia recondita f. sp. tritici on wheat cv. Kanzler; details: foliar, 200 ppm in the applied formulation, applied 1 day after inoculation, assessed 6 to 8 days after application, vs untreated control leaf disks, read-out: disease control
In short: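 Compound applied 1 day after spore inoculation of wheat cv. Kanzler leaf segments on agar (dark, 19 °C, 75% RH before treatment). After further incubation under 12 h light/12 h dark at 19 °C and 75% RH, disease control relative to untreated segments rated 6–8 days post-application.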

O=C(NCc1ccc(-c2noc(C(F)(F)F)n2)cc1)c1ccc(Cl)cc1Cl [Compound 1.8, 2,4-dichloro-N-[[4-[5-(trifluoromethyl)-1,2,4-oxadiazol-3-yl]phenyl]methyl]benzamide]
≥ 80%: pest or weed control at 100 ppm (Uromyces viciae-Fabael)

CC1CC1C(=O)NCc1ccc(-c2noc(C(F)(F)F)n2)cc1F (centres unmarked) [Compound 1.66, N-[[2-fluoro-4-[5-(trifluoromethyl)-1,2,4-oxadiazol-3-yl]phenyl]methyl]-2-methyl-cyclopropanecarboxamide]
≥ 80%: pest or weed control at 200 ppm (Phakopsora pachyrhizi) | pest or weed control at 200 ppm [1] | inhibition of growth at 20 ppm [2] | pest or weed control at 200 ppm [3]

CC1(C(=O)NCc2ccc(-c3noc(C(F)(F)F)n3)cc2F)CC1 [Compound 1.67, N-[[2-fluoro-4-[5-(trifluoromethyl)-1,2,4-oxadiazol-3-yl]phenyl]methyl]-1-methyl-cyclopropanecarboxamide]
≥ 80%: pest or weed control at 200 ppm (Phakopsora pachyrhizi) | pest or weed control at 200 ppm [1] | inhibition of growth at 20 ppm [2] | pest or weed control at 200 ppm [3]

CC1(C(=O)NCc2ccc(-c3noc(C(F)(F)F)n3)c(F)c2)COC1 [Compound 1.69, N-[[3-fluoro-4-[5-(trifluoromethyl)-1,2,4-oxadiazol-3-yl]phenyl]methyl]-3-methyl-oxetane-3-carboxamide]
≥ 80%: pest or weed control at 200 ppm (Phakopsora pachyrhizi) | pest or weed control at 200 ppm [1] | inhibition of growth at 20 ppm [2] | pest or weed control at 200 ppm [3]

O=C(NCc1ccc(-c2noc(C(F)(F)F)n2)c(F)c1F)C1CC1(F)F (centres unmarked) [Compound 1.72, N-[[2,3-difluoro-4-[5-(trifluoromethyl)-1,2,4-oxadiazol-3-yl]phenyl]methyl]-2,2-difluoro-cyclopropanecarboxamide]
≥ 80%: pest or weed control at 200 ppm (Phakopsora pachyrhizi) | pest or weed control at 200 ppm [1] | inhibition of growth at 20 ppm [2] | pest or weed control at 200 ppm [3]

O=C(CC1CC1)NCc1ccc(-c2noc(C(F)(F)F)n2)c(F)c1F [Compound 1.73, 2-cyclopropyl-N-[[2,3-difluoro-4-[5-(trifluoromethyl)-1,2,4-oxadiazol-3-yl]phenyl]methyl]acetamide]
≥ 80%: pest or weed control at 200 ppm (Phakopsora pachyrhizi) | pest or weed control at 200 ppm [1] | inhibition of growth at 20 ppm [2] | pest or weed control at 200 ppm [3]

O=C(NCc1ccc(-c2noc(C(F)(F)F)n2)c(F)c1F)C1CCC1 [Compound 1.75, N-[[2,3-difluoro-4-[5-(trifluoromethyl)-1,2,4-oxadiazol-3-yl]phenyl]methyl] cyclobutanecarboxamide]
≥ 80%: pest or weed control at 200 ppm (Phakopsora pachyrhizi) | pest or weed control at 200 ppm [1] | inhibition of growth at 20 ppm [2] | pest or weed control at 200 ppm [3]

CC1(C(=O)NCc2ccc(-c3noc(C(F)(F)F)n3)c(F)c2F)CC1 [Compound 1.78, N-[[2,3-difluoro-4-[5-(trifluoromethyl)-1,2,4-oxadiazol-3-yl]phenyl]methyl]-1-methyl-cyclopropanecarboxamide]
≥ 80%: pest or weed control at 200 ppm (Phakopsora pachyrhizi) | pest or weed control at 200 ppm [1] | inhibition of growth at 20 ppm [2] | pest or weed control at 200 ppm [3]

O=C(NCc1ccc(-c2noc(C(F)(F)F)n2)c(F)c1)C1CC1(F)F (centres unmarked) [Compound 1.91, 2,2-difluoro-N-[[3-fluoro-4-[5-(trifluoromethyl)-1,2,4-oxadiazol-3-yl]phenyl]methyl] cyclopropanecarboxamide]
≥ 80%: pest or weed control at 200 ppm (Phakopsora pachyrhizi) | pest or weed control at 200 ppm [1] | inhibition of growth at 20 ppm [2] | pest or weed control at 200 ppm [3]

O=C(CC1CC1)NCc1ccc(-c2noc(C(F)(F)F)n2)c(F)c1 [Compound 1.92, 2-cyclopropyl-N-[[3-fluoro-4-[5-(trifluoromethyl)-1,2,4-oxadiazol-3-yl]phenyl]methyl]acetamide]
≥ 80%: pest or weed control at 200 ppm (Phakopsora pachyrhizi) | pest or weed control at 200 ppm [1] | inhibition of growth at 20 ppm [2] | pest or weed control at 200 ppm [3]

O=C(NCc1ccc(-c2noc(C(F)(F)F)n2)c(F)c1)C1CCC1 [Compound 1.93, N-[[3-fluoro-4-[5-(trifluoromethyl)-1,2,4-oxadiazol-3-yl]phenyl]methyl] cyclobutanecarboxamide]
≥ 80%: pest or weed control at 200 ppm (Phakopsora pachyrhizi) | pest or weed control at 200 ppm [1] | inhibition of growth at 20 ppm [2] | pest or weed control at 200 ppm [3]

O=C(NCCc1ccc(-c2noc(C(F)(F)F)n2)cc1)C1CC1(F)F (centres unmarked) [Compound 1.98, 2,2-difluoro-N-[2-[4-[5-(trifluoromethyl)-1,2,4-oxadiazol-3-yl]phenyl]ethyl] cyclopropanecarboxamide]
≥ 80%: pest or weed control at 200 ppm (Phakopsora pachyrhizi) | pest or weed control at 200 ppm [1] | inhibition of growth at 20 ppm [2] | pest or weed control at 200 ppm [3]

O=C(NCCc1ccc(-c2noc(C(F)(F)F)n2)cc1)C1CCOC1 (centres unmarked) [Compound 1.100, N-[2-[4-[5-(trifluoromethyl)-1,2,4-oxadiazol-3-yl]phenyl]ethyl] tetrahydrofuran-3-carboxamide]
≥ 80%: pest or weed control at 200 ppm (Phakopsora pachyrhizi) | pest or weed control at 200 ppm [1] | inhibition of growth at 20 ppm [2] | pest or weed control at 200 ppm [3]

O=C(NCCc1ccc(-c2noc(C(F)(F)F)n2)cc1)C1CCC1 [Compound 1.101, N-[2-[4-[5-(trifluoromethyl)-1,2,4-oxadiazol-3-yl]phenyl]ethyl] cyclobutanecarboxamide]
≥ 80%: pest or weed control at 200 ppm (Phakopsora pachyrhizi) | pest or weed control at 200 ppm [1] | inhibition of growth at 20 ppm [2] | pest or weed control at 200 ppm [3]

CC1CC1C(=O)NCCc1ccc(-c2noc(C(F)(F)F)n2)cc1 (centres unmarked) [Compound 1.102, 2-methyl-N-[2-[4-[5-(trifluoromethyl)-1,2,4-oxadiazol-3-yl]phenyl]ethyl] cyclopropanecarboxamide]
≥ 80%: pest or weed control at 200 ppm (Phakopsora pachyrhizi) | pest or weed control at 200 ppm [1] | inhibition of growth at 20 ppm [2] | pest or weed control at 200 ppm [3]

CC1(C(=O)NCCc2ccc(-c3noc(C(F)(F)F)n3)cc2)COC1 [Compound 1.104, 3-methyl-N-[2-[4-[5-(trifluoromethyl)-1,2,4-oxadiazol-3-yl]phenyl]ethyl]oxetane-3-carboxamide]
≥ 80%: pest or weed control at 200 ppm (Phakopsora pachyrhizi) | pest or weed control at 200 ppm [1] | inhibition of growth at 20 ppm [2] | pest or weed control at 200 ppm [3]

O=C(CC1CC1)NCCc1ccc(-c2noc(C(F)(F)F)n2)cc1 [Compound 1.105, 2-cyclopropyl-N-[2-[4-[5-(trifluoromethyl)-1,2,4-oxadiazol-3-yl]phenyl]ethyl]acetamide]
≥ 80%: pest or weed control at 200 ppm (Phakopsora pachyrhizi) | pest or weed control at 200 ppm [1] | inhibition of growth at 20 ppm [2] | pest or weed control at 200 ppm [3]
